Experiment [1] has as its system Glo-Response ARE-luc2P HEK293 cell line. Description: ARE luciferase reporter cell-based assay.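 Note: luciferase signal tracks Nrf2 activation of the ARE once compounds disrupt KEAP1-Nrf2 binding, read with One-Glo reagent, DMSO serving as low control.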 To be noted: Homo sapiens, HEK293, 24 h, average of results obtained. For orientation: In a reporter assay the amount or activity of a reporter protein is the signal.
The target of experiment [2] is Kelch domain of human KEAP1 (321-624 aa) (Homo sapiens (Human), UniProt Q14145). Description: KEAP1 KELCH ThermoFluor binding assay.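 Note: Ligand-induced melting temperature shift of E. coli-expressed KEAP1 Kelch protein, Kd estimated from concentration-response curves of ΔTm.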 To be noted: KEAP Kelch […], 1,8-ANS, pH 7.0, average of results obtained, read-out: Tf Kd. In general terms: In DSF a fluorescence change marks the thermal transition of the protein.

Molecules are shown by their SMILES.

The term EC50 denotes the concentration at which the effect is half-maximal. A lower EC50 goes with greater potency. For orientation: Kd means the equilibrium constant for the complex coming apart.

Sequence of Kelch domain of human KEAP1 (321-624 aa) (Q14145 321-624): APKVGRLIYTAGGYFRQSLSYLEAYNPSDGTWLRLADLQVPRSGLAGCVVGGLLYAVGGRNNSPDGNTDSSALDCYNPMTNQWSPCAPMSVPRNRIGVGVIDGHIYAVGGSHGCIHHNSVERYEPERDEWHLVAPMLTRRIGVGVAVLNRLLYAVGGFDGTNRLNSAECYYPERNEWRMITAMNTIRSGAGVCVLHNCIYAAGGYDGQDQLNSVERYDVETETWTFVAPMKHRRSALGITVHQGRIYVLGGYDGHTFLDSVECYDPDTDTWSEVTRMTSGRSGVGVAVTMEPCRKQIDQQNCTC

In turn, `Cc1ccc([C@H](c2ccn3c(C(F)(F)F)nnc3c2C)C(C)(C)C(=O)O)cc1CN1CC2(CCOCC2)Oc2nc(NCCN3CCNCC3)c(C)cc2S1(=O)=O` (single isomer, unassigned) [Example 366] displayed an EC50 in experiment [1] of 407 nM. In addition, the Kd in experiment [2] was < 1 nM.

In experiment [1], `Cc1ccc([C@H](c2ccn3c(C(F)(F)F)nnc3c2C)C(C)(C)C(=O)O)cc1CN1CC2(CCOCC2)Oc2nc(N[C@@H](C)CN3CCCC3)c(C)cc2S1(=O)=O` (single isomer, unassigned) [Example 367, (*R)-2,2-Dimethyl-3-(4-methyl-3-((8′-methyl-1′,1′-dioxido-7′-(((S)-1-(pyrrolidine-1-yl)propan-2-yl)amino)-2,3,5,6-tetrahydrospiro[pyran-4,4′-pyrido[2,3-b][1,4,5]oxathiazepin]-2′(3′H)-yl)methyl)phenyl)-3-(8-methyl-3-(trifluoromethyl)-[1,2,4]triazolo[4,3-a]pyridine-7-yl)propanoic Acid] registered an EC50 of 78.6 nM. For the same molecule, the Kd in experiment [2] is < 1 nM.

In the case of `Cc1ccc([C@H](c2ccn3c(C(F)(F)F)nnc3c2C)C(C)(C)C(=O)O)cc1CN1CC2(CCOCC2)Oc2nc(OCCN3CCNCC3)ccc2S1(=O)=O` (single isomer, unassigned) [Example 368, (*R)-3-(3-((1′,1′-Dioxido-7′-(2-(piperazin-1-yl)ethoxy)-2,3,5,6-tetrahydrospiro[pyran-4,4′-pyrido[2,3-b][1,4,5]oxathiazepin]-2′(3′H)-yl)methyl)-4-methylphenyl)-2,2-dimethyl-3-(8-methyl-3-(trifluoromethyl)-[1,2,4]triazolo[4,3-a][pyridine-7-yl)propanoic Acid], the EC50 in experiment [1] turned out to be 256 nM. The Kd in experiment [2] was < 1 nM.

`Cc1ccc([C@H](c2ccn3c(C(F)(F)F)nnc3c2C)C(C)(C)C(=O)O)cc1CN1CC2(CCOCC2)Oc2nc(OCCC3CCNCC3)c(C)cc2S1(=O)=O` (single isomer, unassigned) [Example 369, (*R)-2,2-Dimethyl-3-(4-methyl-3-(8′-methyl-1′,1′-dioxido-7′-(2-(piperidin-4-yl)ethoxy)-2,3,5,6-tetrahydrospiro[pyran-4,4′-pyrido[2,3-b][1,4,5]oxathiazepin]-2′(3′H)-yl)methyl)-4-methylphenyl)-2,2-dimethyl-3-(8-methyl-3-(trifluoromethyl)-[1,2,4]triazolo[4,3-a][pyridine-7-yl)propanoic Acid] came in with an EC50 in experiment [1] of 176 nM. For the same molecule, the Kd in experiment [2] was < 1 nM.

In experiment [1], `Cc1ccc([C@@H](c2ccn3c(C(F)(F)F)nnc3c2C)C(C)(C)C(=O)O)cc1CN1CC2(CCOCC2)Oc2nc(OCCN3CCCC3)c(C)cc2S1(=O)=O` (single isomer, unassigned) [Example 370, (*S)-2,2-Dimethyl-3-(4-methyl-3-((8′-methyl-1′,1′-dioxido-7′-(2-(pyrrolidin-1-yl)ethoxy)-2,3,5,6-tetrahydrospiro[pyran-4,4′-pyrido[2,3-b][1,4,5]oxathiazepin]-2′(3′H)-yl)methyl)-4-methylphenyl)-2,2-dimethyl-3-(8-methyl-3-(trifluoromethyl)-[1,2,4]triazolo[4,3-a][pyridine-7-yl)propanoic Acid] had an EC50 of 11.3 nM. Also, in experiment [2], the Kd was < 1 nM.

The molecule `Cc1ccc([C@@H](c2ccn3c(C(F)(F)F)nnc3c2C)C(C)(C)C(=O)O)cc1CN1CC2(CC2)Oc2nc(OCCN3CCCCC3)ccc2S1(=O)=O` (single isomer, unassigned) [Example 371, (*S)-3-(3-1′,1′-Dioxido-7′-(2-(piperidin-1-yl)ethoxy)spiro[cyclopropane-1,4′-pyrido[2,3-b][1,4,5]oxathiazepin]-2′(3′H)-yl)methyl)-4-methylphenyl)-2,2-dimethyl-3-(8-methyl-3-(trifluoromethyl)-[1,2,4]triazolo[4,3-a][pyridine-7-yl)propanoic Acid] came in with an EC50 in experiment [1] of 6 nM. Besides, the Kd in experiment [2] was < 1 nM.

For `Cc1ccc([C@@H](c2ccn3c(C(F)(F)F)nnc3c2C)C(C)(C)C(=O)O)cc1CN1CC2(CC2)Oc2nc(OCCN3CCCCC3)c(C)cc2S1(=O)=O` (single isomer, unassigned) [Example 372, (*S)-2,2-Dimethyl-3-(4-methyl-3-((8′-methyl-1′,1′-dioxido-7′-(2-(piperidin-1-yl)ethoxy)spiro[cyclopropane-1,4′-pyrido[2,3-b][1,4,5]oxathiazepin]-2′(3′H)-yl)methyl)phenyl)-3-(8-methyl-3-(trifluoromethyl)-[1,2,4]triazolo[4,3-a]pyridine-7-yl)propanoic Acid], a half-maximal response in experiment [1] (EC50) required 2.9 nM. Besides, the Kd in experiment [2] is < 1 nM.

Take `Cc1ccc([C@@H](c2ccn3c(C(F)(F)F)nnc3c2C)C(C)(C)C(=O)O)cc1CN1CC2(CC2)Oc2nc(OCCN3CCCC3)c(C)cc2S1(=O)=O` (single isomer, unassigned) [Example 373, (*S)-2,2-Dimethyl-3-(4-methyl-3-((8′-methyl-1′,1′-dioxido-7′-(2-(pyrrolidin-1-yl)ethoxy)spiro[cyclopropane-1,4′-pyrido[2,3-b][1,4,5]oxathiazepin]-2′(3′H)-yl)methyl)phenyl)-3-(8-methyl-3-(trifluoromethyl)-[1,2,4]triazolo[4,3-a]pyridine-7-yl)propanoic Acid]: in experiment [1], the response was half-maximal at 5.4 nM (EC50). Also, the equilibrium dissociation constant (Kd) in experiment [2] is < 1 nM.

In experiment [1], `Cc1ccc([C@@H](c2ccn3c(C(F)F)nnc3c2C)C(C)(C)C(=O)O)cc1CN1CC2(CC2)Oc2nc(OCCN3CCCCC3)c(C)cc2S1(=O)=O` (single isomer, unassigned) [Example 374, (*S)-3-(3-(Difluoromethyl)-8-methyl-[1,2,4]triazolo[4,3-a]pyridine-7-yl)-2,2-dimethyl-3-(4-methyl-3-((8′-methyl-1′,1′-dioxido-7′-(2-(piperidin-1-yl)ethoxy)spiro[cyclopropane-1,4′-pyrido[2,3-b][1,4,5]oxathiazepin]-2′(3′H)-yl)methyl)phenyl)propanoic Acid] came in with an EC50 of 4.8 nM. Besides, the Kd in experiment [2] was < 1 nM.

With `Cc1ccc([C@@H](c2ccn3c(C(F)F)nnc3c2C)C(C)(C)C(=O)O)cc1CN1CC2(CC2)Oc2nc(OCCN3CCCC3)c(C)cc2S1(=O)=O` (single isomer, unassigned) [Example 375, (*S)-3-(3-(Difluoromethyl)-8-methyl-[1,2,4]triazolo[4,3-a]pyridine-7-yl)-2,2-dimethyl-3-(4-methyl-3-((8′-methyl-1′,1′-dioxido-7′-(2-(pyrrolidin-1-yl)ethoxy)spiro[cyclopropane-1,4′-pyrido[2,3-b][1,4,5]oxathiazepin]-2′(3′H)-yl)methyl)phenyl)propanoic Acid], the response in experiment [1] was half-maximal at 11.5 nM (EC50). The Kd in experiment [2] was < 1 nM.

As to `Cc1ccc([C@@H](c2ccn3c(C(F)F)nnc3c2C)C(C)(C)C(=O)O)cc1CN1CC2(CCOCC2)Oc2nc(OCCN3CCCC3)c(C)cc2S1(=O)=O` (single isomer, unassigned) [Example 377, (*S)-3-(3-(Difluoromethyl)-8-methyl-[1,2,4]triazolo[4,3-a]pyridine-7-yl)-2,2-dimethyl-3-(4-methyl-3-((8′-methyl-1′,1′-dioxido-7′-(2-(pyrrolidin-1-yl)ethoxy)-2,3,5,6-tetrahydrospiro[pyran-4,4′-pyrido[2,3-b][1,4,5]oxathiazepin]-2′(3′H)-yl)methyl)phenyl)propanoic Acid], the response in experiment [1] was half-maximal at 44.9 nM (EC50). For the same molecule, the Kd in experiment [2] was < 1 nM.

(Values after US10947252B2, “Inhibitors of KEAP1-Nrf2 protein-protein interaction” (Janssen Pharmaceutica NV, priority 2018, dated 2021).)
